{"source": "patent US8906955B2", "about": "“Use of adrenergic beta-3-receptor agonists in anti-aging” (priority 2012, dated 2014)", "key": {"[1]": {"test_system": "rat myocardial infarction models", "test": "Rat myocardial infarction (heart failure) model: B-ultrasonography, tunel apoptosis, LVW/BW", "format": "in vivo", "conditions": "1 mg/kg/day intraperitoneally, 4 weeks", "method": "(§1) In rat myocardial infarction models, activation of the β-3 receptor could increase level of SIRT1 in cardiomyocyte, inhibit expression of p53, improve the cardiac function and achieve anti-apoptosis effect. The myocardial infarction model was created by ligation of anterior descending branch of rat left coronary artery. BRL37344 was intraperitoneally injected at 1 mg/kg/day, and heart B-ultrasonography was performed after 4 weeks. Heart tissue was determined for apoptosis (tunel method) and expression levels of SIRT1 and p53 (western blot). The ratio of left ventricular weight to body weight (LVW/BW) is determined. It can be seen from the results shown in FIGS. 3 to 5, that BRL37344 decreases p53 expression, cardiac cell apoptosis, and value of LVW/BW of heart failure rat, increases SIRT1 expression, alleviate cardiac hypertrophy and improve cardiac function."}, "p53 [2]": {"test_system": "p53", "test": "Western blot of p53 in heart tissue of myocardial infarction rats", "format": "in vivo", "conditions": "heart failure rat, 1 mg/kg/day intraperitoneally, 4 weeks", "method": "as §1"}, "SIRT1 [3]": {"test_system": "SIRT1", "test": "Western blot of SIRT1 in heart tissue of myocardial infarction rats", "format": "in vivo", "conditions": "heart failure rat, 1 mg/kg/day intraperitoneally, 4 weeks", "method": "as §1"}, "[4]": {"test_system": "adipose-derived stem cells of rats", "test": "β-Galactosidase staining of adipose-derived stem cells", "format": "cell-based, rat", "conditions": "10^−7 M, 24 h, compared with SR59230A", "method": "Blockage of the β-3 receptor could increase level of β-galactosidase in adipose-derived stem cells and promote stem cell aging. BRL37344 and SR59230A were used to treat adipose-derived stem cells of rats each at 10^−7 M. After 24 h, cells were fixed using paraformaldehyde, and stained and photographed according to the specification of β-Galactosidase Staining Kit. BRL37344 decreases the level of β-galactosidase in adipose-derived stem cells compared with SR59230A, indicating agonisting of adrenergic β3 receptors of adipose-derived stem cells achieves anti-aging effect."}, "mTOR/Rictor complex": {"test_system": "mTOR/Rictor complex", "test": "Western blot of mTOR/Rictor complex", "format": "cell-based", "conditions": "rat cardiomyocyte, 10^−7 M, 24 h, compared to control shRNA", "method": "Activation of the β3 receptor could increase mTOR/Rictor complex in […]. shRNA of β3 adrenergic receptor, control shRNA, BRL37344 and SR59230A was used to treat rat cardiomyocyte each at 10^−7 M. After 24 h, total protein was extracted and subjected to western blot to determine the expression amount of mTOR and Rictor proteins."}, "SIRT1 [5]": {"test_system": "SIRT1", "test": "Quantitative PCR of SIRT1 in organs of aging rats", "format": "in vivo", "conditions": "12-month male SD rats, 100 nmol per rat intraperitoneally, qd, 2 weeks, vs control group", "source_text": "(§2) Activation of the β3 receptor could increase the expression of SIRT1, SIRT3 and SIRT4 in heart, liver, brain, kidney and aorta of aging rats. Twenty 12-month male SD rats were randomly divided into 2 groups. The rats were intraperitoneally injected with BRL37344 at 100 nmol for each rat, qd, 2 weeks. The rats in control group were administrated with solvents of same volume. The rats were sacrificed to obtain heart, liver, brain, kidney and aorta, followed by total RNA extraction. The RNA was then reversely transcribed, followed by quantitative PCR to detect gene expression of SIRT1, SIRT3 and SIRT4. Compared to the control group, BRL37344 increases the expression of SIRT1, SIRT3 and SIRT4 in heart, liver, brain, kidney and aorta."}, "SIRT3": {"test_system": "SIRT3", "test": "Quantitative PCR of SIRT3 in organs of aging rats", "format": "in vivo", "conditions": "12-month male SD rats, 100 nmol per rat intraperitoneally, qd, 2 weeks, vs control group", "source_text": "as §2"}, "SIRT4": {"test_system": "SIRT4", "test": "Quantitative PCR of SIRT4 in organs of aging rats", "format": "in vivo", "conditions": "12-month male SD rats, 100 nmol per rat intraperitoneally, qd, 2 weeks, vs control group", "source_text": "as §2"}, "MCF7 cells [6]": {"test_system": "MCF7 cells", "test": "JC-1 flow cytometry of mitochondrial membrane potential", "format": "cell-based", "conditions": "10^−7 M", "method": "(§3) Activation of the β3 receptor could increase mitochondrial content of MCF7 cells. BRL37344 and SR59230A were used to treat MCF7 cells and naked tumor-bearing rats each at 10^−7 M. The amount of mitochondrion was determined by MitoTracker probes. Mitochondrial membrane potential was determinded by JC1. The ROS content of the cells was determined by fluorescence probe H2DCFDA. ATP level was determined by ATP kit. MDC staining was determined by flowcytometer. GFP-LC3 eukaryotic expression vectors were used for transfection. […] BRL37344 protected mitochondrial membrane potential (FIG. 10), reduced intracellular ROS content (FIG. 11), and increased intracellular ATP level (FIG. 12)."}, "MCF7 cells [7]": {"test_system": "MCF7 cells", "test": "H2DCFDA flow cytometry of reactive oxygen species", "format": "cell-based", "conditions": "10^−7 M, fluorescence probe H2DCFDA", "method": "as §3"}, "naked tumor-bearing rats": {"test_system": "naked tumor-bearing rats", "test": "ATP content by ATP kit in tumor tissue of naked tumor-bearing rats", "format": "in vivo, rat", "conditions": "10^−7 M", "method": "as §3"}, "cardiomyocyte": {"test_system": "cardiomyocyte", "test": "Lipofuscin in cardiomyocyte under confocal microscope", "format": "cell-based, rat", "conditions": "10^−7 M, 10 days", "source_text": "Beta-3 receptor reduced amount of lipofuscin in cardiomyocyte. BRL37344 and SR59230A were used to treat cardiomyocyte each at 10^−7 M. After 10 days, cells were observed under confocal microscope for lipofuscin."}, "mTOR/α-Tubulin": {"test_system": "mTOR/α-Tubulin", "test": "mTOR/α-Tubulin double staining in cardiac fibroblast", "format": "cell-based, rat", "conditions": "cardiac fibroblast of rats, 10^−7 M, confocal microscope", "source_text": "(§4) Beta-3 receptor promoted binding of mTORC2 to α-Tubulin in spindle apparatus. BRL37344 was used to treat cardiac fibroblast of rats at 10^−7 M. The cells were undergone mTOR/α-Tubulin immunohistochemical double staining and Rictor/α-Tubulin immunofluorescence double staining, and observed under confocal microscope."}, "Rictor/α-Tubulin": {"test_system": "Rictor/α-Tubulin", "test": "Rictor/α-Tubulin immunofluorescence double staining in cardiac fibroblast", "format": "cell-based, rat", "conditions": "cardiac fibroblast of rats, 10^−7 M, confocal microscope", "source_text": "as §4"}, "p53 [8]": {"test_system": "p53", "test": "Western blot of p53 in MCF-7 cells treated with SR59230A", "format": "cell-based", "conditions": "24 h, with increasing SR59230A concentration, western blot vs GAPDH", "method": "(§5) MCF-7 cells were treated with SR59230A at different concentrations. After 24 h, the cells were lysed to extract total protein. The protein concentration was determined by BCA method. 10 μg of the protein was used to perform 10% SDS PAGE, and then transferred to a PVDF membrane. The membrane was blocked for 1 h with TBST (10 mmol/L Tris HCl, pH 7.5, 150 mmol/L NaCl, 0.1% Tween 20) containing 4% fat-free milk, and incubated overnight with p53 antibody (1:1000) and SIRT1 antibody (1:1000) at 4° C. The membrane was further incubated with secondary antibodies for 1 h after washing, followed by ECL color development. The same procedure is repeated 3 times. The gray values of protein bands were obtained through Fluorchem 8900 software and the ratio of target band to reference band (GAPDH) was calculated. Results are shown in FIGS. 1 and 2, wherein the expression level of p53 is increased as the increase of SR59230A concentration, while SIRT1 is decreased."}, "SIRT1 [9]": {"test_system": "SIRT1", "test": "Western blot of SIRT1 in MCF-7 cells treated with SR59230A", "format": "cell-based", "conditions": "24 h, with increasing SR59230A concentration, western blot vs GAPDH", "method": "as §5"}, "MCF7 cells [10]": {"test_system": "MCF7 cells", "test": "MitoTracker/LC3B immunofluorescence double staining (mitochondrion content, mitophagy)", "format": "cell-based", "conditions": "10^−7 M", "method": "as §3"}, "MCF7 cells [11]": {"test_system": "MCF7 cells", "test": "MDC staining by flowcytometer", "format": "cell-based", "conditions": "10^−7 M", "method": "as §3"}, "MCF7 cells [12]": {"test_system": "MCF7 cells", "test": "GFP-LC3 eukaryotic expression vector transfection", "format": "cell-based", "conditions": "10^−7 M, GFP-LC3 transfected cells", "method": "as §3"}}}
{"smiles": "C[C@H](Cc1ccc(OCC(=O)O)cc1)NC[C@H](O)c1cccc(Cl)c1", "note": "[BRL37344]", "values": [{"measurement": "cardiac hypertrophy", "setting": "[1]", "value": "alleviate"}, {"measurement": "ratio of left ventricular weight to body weight (LVW/BW)", "setting": "[1]", "value": "decreases"}, {"measurement": "cardiac function", "setting": "[1]; heart B-ultrasonography, 1 mg/kg/day", "value": "improve"}, {"measurement": "cardiac cell apoptosis", "setting": "[1]; tunel method, 1 mg/kg/day", "value": "decreases"}, {"measurement": "p53 expression in rat myocardia", "setting": "p53 [2]", "value": "decreases"}, {"measurement": "SIRT1 expression in rat myocardia", "setting": "SIRT1 [3]", "value": "increases"}, {"measurement": "level of β-galactosidase in adipose-derived stem cells", "setting": "[4]", "value": "decreases"}, {"measurement": "mTOR/Rictor complex", "setting": "mTOR/Rictor complex", "value": "increases"}, {"measurement": "expression of SIRT1 in heart, liver, brain, kidney and aorta", "setting": "SIRT1 [5]", "value": "increases"}, {"measurement": "expression of SIRT3 in heart, liver, brain, kidney and aorta", "setting": "SIRT3", "value": "increases"}, {"measurement": "expression of SIRT4 in heart, liver, brain, kidney and aorta", "setting": "SIRT4", "value": "increases"}, {"measurement": "mitochondrial membrane potential", "setting": "MCF7 cells [6]", "value": "protected"}, {"measurement": "intracellular ROS content", "setting": "MCF7 cells [7]", "value": "reduced"}, {"measurement": "intracellular ATP level", "setting": "naked tumor-bearing rats", "value": "increased"}, {"measurement": "lipofuscin in cardiomyocyte", "setting": "cardiomyocyte", "value": "significantly reduced"}, {"measurement": "binding of mTOR to α-Tubulin in spindle apparatus", "setting": "mTOR/α-Tubulin", "value": "promoted"}, {"measurement": "binding of Rictor to α-Tubulin", "setting": "Rictor/α-Tubulin", "value": "promoted"}]}
{"smiles": "CCc1ccccc1OC[C@@H](O)CN[C@H]1CCCc2ccccc21", "note": "[SR59230A]", "values": [{"measurement": "expression level of p53", "setting": "p53 [8]", "value": "increased"}, {"measurement": "expression level of SIRT1", "setting": "SIRT1 [9]", "value": "decreased"}, {"measurement": "content of mitochondrion", "setting": "MCF7 cells [10]; MitoTracker probes", "value": "decreases"}, {"measurement": "mitophagy", "setting": "MCF7 cells [10]; MitoTracker/LC3B double staining", "value": "enhance"}, {"measurement": "mitochondrial membrane potential", "setting": "MCF7 cells [6]", "value": "damaged"}, {"measurement": "MDC staining", "setting": "MCF7 cells [11]", "value": "increased"}, {"measurement": "GFP-LC3 fluorescent spots", "setting": "MCF7 cells [12]", "value": "promoted to form many bright and green fluorescent spots"}]}
